Measurements taken from patent US10988449B2, “Isoxazole derivatives as nuclear receptor agonists and uses thereof” (IL DONG PHARMACEUTICAL CO., LTD., priority 2017, dated 2021).
Structures can show the parent of a compound that is named as a salt.

Target: T1, human FXR (Homo sapiens, UniProt Q96RI1)
T1 construct: expressed in transfected cells
T1 sequence (Q96RI1 1-486): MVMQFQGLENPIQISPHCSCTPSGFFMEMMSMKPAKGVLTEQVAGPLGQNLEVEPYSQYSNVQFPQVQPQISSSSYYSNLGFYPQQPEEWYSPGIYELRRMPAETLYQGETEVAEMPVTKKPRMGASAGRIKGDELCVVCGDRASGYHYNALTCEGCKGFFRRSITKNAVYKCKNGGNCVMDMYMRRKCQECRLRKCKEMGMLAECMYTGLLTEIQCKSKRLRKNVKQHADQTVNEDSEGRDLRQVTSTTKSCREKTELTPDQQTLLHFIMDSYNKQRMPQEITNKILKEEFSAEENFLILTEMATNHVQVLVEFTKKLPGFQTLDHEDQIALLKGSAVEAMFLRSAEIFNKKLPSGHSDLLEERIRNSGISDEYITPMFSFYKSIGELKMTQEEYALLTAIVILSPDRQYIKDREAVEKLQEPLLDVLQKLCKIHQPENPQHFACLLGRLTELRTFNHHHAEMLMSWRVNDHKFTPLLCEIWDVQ
Assay: FXR reporter assay (cellular FXR activities)
Format: cell-based
Conditions: for EC50: FXR reporter cells, 24 hours incubation, luciferase, read-out: Reporter Cell EC50; for Emax: read-out: Emax (%) (GW4064 Emax = 100%)
Protocol: FXR reporter assay was performed to measure cellular FXR activities of the compounds in the present invention. FXR reporter cells with high expression level of human FXR were seeded into 96-well cell culture plates, and incubated for 1-2 hours at 37° C. under 5% CO2 atmosphere. The invented compounds diluted in DMSO with various concentrations were added to the 96-well cell culture plates, and they were incubated for 24 hours at 37° C. under 5% CO2 atmosphere. After incubation, we calculate EC50 by using luciferase substrate.

SMILES	EC50 [nM]	Emax [%]
O=C(O)c1cc(C#Cc2ccc(OCc3c(-c4c(Cl)cccc4Cl)noc3C3CC3)cc2Cl)cc2c1OCC2 [Compound I-100, 5-((2-chloro-4-((5-cyclopropyl-3-(2,6-dichlorophenyl)isoxazol-4-yl)methoxy)phenyl)ethynyl)-2,3-dihydrobenzofuran-7-carboxylic acid]	60 to 200	> 100
O=C(O)c1ccc(C#Cc2ccc(OCc3c(-c4c(Cl)cccc4Cl)noc3C3CC3)cc2C(F)(F)F)cc1 [Compound I-4, 4-((4 ((5-cyclopropyl-3-(2,6-dichlorophenyl)isoxazol-4-yl)methoxy)-2-(trifluoromethyl)phenyl)ethynyl)benzoic acid]	60 to 200	91
O=C(O)c1cccc(C#Cc2ccc(OCc3c(-c4c(Cl)cccc4Cl)noc3C3CC3)cc2Cl)c1Cl [Compound I-35, 2-chloro-3-((2-chloro-4-((5-cyclopropyl-3-(2,6-dichlorophenyl)isoxazol-4-yl)methoxy)phenyl)ethynyl)benzoic acid]	200 to 1000	86
CCOC(=O)Nc1cccc(C#Cc2ccc(OCc3c(-c4c(Cl)cccc4Cl)noc3C3CC3)cc2Cl)c1 [Compound I-11, ethyl (3-((2-chloro-4-((5-cyclopropyl-3-(2,6-dichlorophenyl)isoxazol-4-yl)methoxy)phenyl)ethynyl)phenyl)carbamate]	> 1000	90
CCN(CC)c1cc(C#Cc2ccc(OCc3c(-c4c(Cl)cccc4Cl)noc3C3CC3)cc2Cl)cc(C(=O)O)c1 [Compound I-24, 3-((2-chloro-4-((5-cyclopropyl-3-(2,6-dichlorophenyl)isoxazol-4-yl)methoxy)phenyl)ethynyl)-5-(diethylamino)benzoic acid]	20 to 60	> 100
CC(C)(C)NCc1cc(C#Cc2ccc(OCc3c(-c4c(Cl)cccc4Cl)noc3C3CC3)cc2Cl)cc(C(=O)O)c1 [Compound I-48, 3-((tert-butylamino)methyl)-5-((2-chloro-4-((5-cyclopropyl-3-(2,6-dichlorophenyl)isoxazol-4-yl)methoxy)phenyl)ethynyl)benzoic acid]	200 to 1000	81
O=C(O)c1cc(C#Cc2ccc(OCc3c(-c4c(Cl)cccc4Cl)noc3C3CC3)cc2Cl)cc(NC2CCNCC2)c1 [Compound I-58, 3-((2-chloro-4-((5-cyclopropyl-3-(2,6-dichlorophenyl)isoxazol-4-yl)methoxy)phenyl)ethynyl)-5-(piperidin-4-ylamino)benzoic acid hydrochloride]	> 1000	75
O=C(Nc1cc(C#Cc2ccc(OCc3c(-c4c(Cl)cccc4Cl)noc3C3CC3)cc2Cl)cc(C(=O)O)c1)OC1CC1 [Compound I-76, 3-((2-chloro-4-((5-cyclopropyl-3-(2,6-dichlorophenyl)isoxazol-4-yl)methoxy)phenyl)ethynyl)-5-((cyclopropoxycarbonyl)amino)benzoic acid]	≤ 20	> 100
CNCc1cc(C#Cc2ccc(OCc3c(-c4c(Cl)cccc4Cl)noc3C3CC3)cc2Cl)cc(C(=O)O)c1 [Compound I-44, 3-((2-chloro-4-((5-cyclopropyl-3-(2,6-dichlorophenyl)isoxazol-4-yl)methoxy)phenyl)ethynyl)-5-((methylamino)methyl)benzoic acid]	200 to 1000	> 100
COc1cc(C#Cc2ccc(OCc3c(-c4c(Cl)cccc4Cl)noc3C3CC3)cc2Cl)cc(C(=O)O)c1 [Compound I-40, 3-((2-chloro-4-((5-cyclopropyl-3-(2,6-dichlorophenyl)isoxazol-4-yl)methoxy)phenyl)ethynyl)-5-methoxybenzoic acid]	20 to 60	83
NS(=O)(=O)Nc1cccc(C#Cc2ccc(OCc3c(-c4c(Cl)cccc4Cl)noc3C3CC3)cc2Cl)c1 [Compound I-14, N-(3-((2-chloro-4-((5-cyclopropyl-3-(2,6-dichlorophenyl)isoxazol-4-yl)methoxy)phenyl)ethynyl)phenyl)sulfamide]	200 to 1000	96
O=C(O)c1cccc(C#Cc2cc(Cl)c(OCc3c(-c4c(Cl)cccc4Cl)noc3C3CC3)cc2Cl)c1 [Compound I-68, 3-((2,5-dichloro-4-((5-cyclopropyl-3-(2,6-dichlorophenyl)isoxazol-4-yl)methoxy)phenyl)ethynyl)benzoic acid]	> 1000	96
CN(C)c1cc(C(=O)O)ccc1C#Cc1ccc(OCc2c(-c3c(Cl)cccc3Cl)noc2C2CC2)cc1Cl [Compound I-22, 4-((2-chloro-4-((5-cyclopropyl-3-(2,6-dichlorophenyl)isoxazol-4-yl)methoxy)phenyl)ethynyl)-3-(dimethylamino)benzoic acid]	60 to 200	93
O=C(O)c1cc(C#Cc2ccc(OCc3c(-c4c(Cl)cccc4Cl)noc3C3CC3)cc2Cl)cc2nc(CO)oc12 [Compound I-107, 5-((2-chloro-4-((5-cyclopropyl-3-(2,6-dichlorophenyl)isoxazol-4-yl)methoxy)phenyl)ethynyl)-2-(hydroxymethyl)benzo[d]oxazole-7-carboxylic acid]	> 1000	> 100
O=C(O)c1cc(C#Cc2ccc(OCc3c(-c4c(Cl)cccc4Cl)noc3C3CC3)cc2Cl)cc2nccnc12 [Compound I-108, 7-((2-chloro-4-((5-cyclopropyl-3-(2,6-dichlorophenyl)isoxazol-4-yl)methoxy)phenyl)ethynyl)quinoxaline-5-carboxylic acid]	20 to 60	98
O=C(O)c1cc(C#Cc2ccc(OCc3c(-c4c(Cl)cccc4Cl)noc3C3CC3)cc2Cl)cc(CN2CCOCC2)c1 [Compound I-50, 3-((2-chloro-4-((5-cyclopropyl-3-(2,6-dichlorophenyl)isoxazol-4-yl)methoxy)phenyl)ethynyl)-5-(morpholinomethyl)benzoic acid]	20 to 60	> 100
CCOC(=O)N(C)c1cc(C#Cc2ccc(OCc3c(-c4c(Cl)cccc4Cl)noc3C3CC3)cc2Cl)cc(C(=O)O)c1 [Compound I-75]	20 to 60	93
CC(=O)Nc1cc(C#Cc2ccc(OCc3c(-c4c(Cl)cccc4Cl)noc3C3CC3)cc2Cl)cc(C(=O)O)c1 [Compound I-73, 3-acetamido-5-((2-chloro-4-((5-cyclopropyl-3-(2,6-dichlorophenyl)isoxazol-4-yl)methoxy)phenyl)ethynyl)benzoic acid]	200 to 1000	> 100
CCCc1nc2cc(C#Cc3ccc(OCc4c(-c5c(Cl)cccc5Cl)noc4C4CC4)cc3Cl)cc(C(=O)O)c2o1 [Compound I-105, 5-((2-chloro-4-((5-cyclopropyl-3-(2,6-dichlorophenyl)isoxazol-4-yl)methoxy)phenyl)ethynyl)-2-propylbenzo[d]oxazole-7-carboxylic acid]	≤ 20	> 100
CCc1nc2c(C(=O)O)cc(C#Cc3ccc(OCc4c(-c5c(Cl)cccc5Cl)noc4C4CC4)cc3Cl)cc2o1 [Compound I-113, 6-((2-chloro-4-((5-cyclopropyl-3-(2,6-dichlorophenyl)isoxazol-4-yl)methoxy)phenyl)ethynyl)-2-ethylbenzo[d]oxazole-4-carboxylic acid]	20 to 60	96
